Data on four molecules can be found in US20090123564A1, “NOVEL COMPOSITIONS FOR HAIR DISORDERS AND PROCESS OF PREPARATION THEREOF” (priority 2006, published 2009).

Where only a bound is given, the exact number is not on record here.

Data set [1] concerns testosterone-induced alopecia in hamsters. Kind of data set: Vernonia anthelmintica extract against testosterone-induced alopecia in hamsters. The data set is classed as in vivo. The conditions noted are these: day 22; visual grading on 0-3 scale (0=bald skin, 3=full hair growth); control=2.0. How it is done: The efficacy of an extract of Vernonia anthelmintica (prepared according to Example-1 as stated hereinafter) against testosterone-induced alopecia in hamsters was studied. Male hamsters (n=6/group) weighing 90-120 g were procured from central animal house of Panacea Biotec Ltd. for study. Drugs used to induce alopecia was Testosterone i.m. depot injection (Testoviron); B.No. K1007, German Remedies Limited; each ml of which contains Testosterone Enanthate USP . . . 250 mg and Arachis oil IP . . . qs. The route of administration of the cream compositions was topical and the duration of study was 22 days. Hamsters were divided into two different groups; one Vernonia anthelmintica extract treated groups and another testosterone control group. On day 0 of study, the fur over and around the flank organs would be shaved with electric clippers.
Testosterone was administered intramuscularly in divided doses, whereas Vernonia anthelmintica extract was applied topically twice daily for 21 days. On day 7, the fur around the flank organs was re-clipped. The amount of hair growth on the area surrounding the flank organs was visually graded on day 22 on a 0-3 scale (0=bald skin, 1=slight hair growth, 2=moderate hair growth and 3=full hair growth). Photographs of flank organ were taken on day 0 and 22. […]

Data set [2] shares this test system. Kind of data set: Dose-response of Vernonia extract gel versus Vernonia freeze dried juice gel in testosterone-challenged hamsters. The conditions noted are these: day 22; 0-3 scale; normal control=1.31±0.18. The data set is classed as in vivo. How it is done: A further study was performed to study the dose-response of Vernonia extract gel and to compare its hair growth promoting effect against Vernonia freeze dried juice gel. The Vernonia extract gel was prepared by making an organic solvent extract of Vernonia and formulating it into a gel composition. The Vernonia freeze dried juice gel was prepared by expressing the juice from fresh leaves and flowering tops of Vernonia followed by freeze drying and formulating it into a gel composition. Male hamsters (n=6-8/group) weighing 80-90 g procured from the Central animal house of Panacea Biotec Ltd. were used. Drugs used to induce alopecia was Testosterone i.m. depot injection (Testoviron); B.No. K1007, German Remedies Limited; each ml of which contains Testosterone Enanthate USP . . . 250 mg and Arachis oil IP . . . qs. The following were used for conducting the study namely Vernonia extract gels B.No. 0629/030A (0.5% w/w), B.No. 0629/030B (1% w/w) and B.No. 0629/030C (2% w/w); and Vernonia freeze dried juice gels B.No. 0629/026A (1.25% w/w) and B.No. 0629/026B (2.5% w/w) (prepared according to Example-5 and Example-6 as stated hereinafter). […]
Testosterone was administered intramuscularly in divided doses, whereas Vernonia cream (s) (100 mg) was applied topically twice daily. […] The hair growth presented as mean was analyzed by one-way ANOVA followed by Student-Newman-Keuls multiple-range test. […]

The subject of data set [3] is androgen induced alopecia in hamsters. Kind of data set: Comparative efficacy of Vernonia anthelmintica extract against finasteride in androgen induced alopecia. In kind it is in vivo. The conditions noted are these: for Mean ± SEM hair growth on a 0-3 scale: hamsters given testosterone i.m., treatments twice daily for 21 days, control 2.75 ± 0.171. How it is done:
Hamsters were divided into five different groups; one normal control group, three drug treated groups and one testosterone control group. On day 0 of the study, the fur over and around the flank organs was shaved with electric clippers. 95% alcohol (100 μl/site) was applied topically, twice daily to Testosterone Control and Normal control groups for 21 days. Saw Palmetto cream was applied topically (100 mg/site) twice daily for 21 days. 100 μl/site of 2% solution of Vernonia anthelmintica extract was applied topically, twice daily for 21 days. Finasteride (0.6 mg/kg) was administered orally twice daily for 21 days. Different groups except normal control group was administered testosterone (25 mg, i.m. in divided doses of 33.3 μl on day 0, 7, and 14) 1-hour post drug administration. At day 7, the fur around the flank organs was re-clipped. The amount of hair growth on the area surrounding the flank organs was visually graded at weekly intervals on a 0-3 scale (0=bald skin, 1=slight hair growth, 2=moderate hair growth and 3=full hair growth). The result is presented in table-2 and shown graphically in FIG. 3.

Data set [4] concerns testosterone-induced alopecia in hamsters. Kind of data set: Strength of Vernonia creams in testosterone-induced alopecia in hamsters. The conditions noted are these: day 22; 0-3 scale; creams 100 mg topical bid for 21 days; normal control=3. In kind it is in vivo. How it is done:
Male hamsters (n=6/group) weighing 80-90 g procured from Central animal house of Panacea Biotec Ltd. were used. Drugs used to induce alopecia was Testosterone i.m. depot injection (Testoviron); B.No. K1007, German Remedies Limited; each ml of which contains Testosterone Enanthate USP . . . 250 mg and Arachis oil IP . . . qs. Four batches of Vernonia creams of different strengths were used for conducting the study namely B.No. 0629/010A (2% w/w), B.No. 0629/010C (0.2% w/w), B.No. 0629/014A (2% w/w) and B.No. 0629/014C (0.2% w/w) prepared according to Example-3 and Example 4 as stated hereinafter. The route of administration of the cream compositions was topical and the duration of study was 22 days. The fur over and around the flank organs of hamsters was shaved with electric clippers. Hamsters were divided into four different groups and allocated different treatments. The summary of different treatments is represented in Table-3.
Testosterone was administered intramuscularly in divided doses, whereas Vernonia cream(s) (100 mg) was applied topically twice daily. All the treatments were given for 21 days. On day 7, the fur around the flank organs was re-clipped. […] The hair growth presented as mean was analyzed by one-way ANOVA followed by Student-Newman-Keuls multiple-range test. […]

Data set [5] concerns leukenia cells P-388. The conditions noted are these: P-388 cells; cited from earlier work.
The subject of data set [6] is leukenia cells L-1210. The conditions noted are these: L-1210 cells; cited from earlier work.
Data set [7] has as its system dihydrotestosterone (DHT). The conditions noted are these: cited from earlier work.
The test system of data set [8] is human carcinoma nasopharynx cells. The conditions noted are these: cited from earlier work.

As for `CCCCCCC(=O)O[C@H]1CC[C@H]2[C@@H]3CCC4=CC(=O)CC[C@]4(C)[C@H]3CC[C@]12C` [Testosterone, Testosterone Enanthate], the Hair growth score in data set [1] is 0.58±0.15; in data set [2] it was 0; in data set [4], 0.13. Moreover, the “Mean ± SEM hair growth on a 0-3 scale” value in data set [3] turned out to be 1.33 ± 0.211.

For vernodaline, the entries for the “IC50, antitumoral effects” value in data set [5] and in data set [6] were 0.11 µg/mL and 0.17 µg/mL, respectively.

Take `CC(C)(C)NC(=O)[C@H]1CC[C@H]2[C@@H]3CC[C@H]4NC(=O)C=C[C@]4(C)[C@H]3CC[C@]12C` [Finasteride]: the “Reversal of testosterone induced-hair loss” value in data set [3] (day 22) is reported as “significantly reversed testosterone induced-hair loss”. In addition, the “Mean ± SEM hair growth on a 0-3 scale” value in data set [3] is given as 2.20 ± 0.339. Also, the “Decrease of DHT concentration in the scalp” value in data set [7] (scalp) is reported as not above 60%. For the same molecule, the “Decrease of DHT concentration in the serum” value in data set [7] (serum) is reported as “up to 70%”.

As for vernolide, the “IC50, cytotoxic effects” value in data set [8] was 2.0 µg/mL. Besides, the “IC50, antitumoral effects” value in data set [5] is 0.13 µg/mL; in data set [6] it was 0.11 µg/mL.
